Measured values: patent publication EP0925070B1, “ANTIFUNGAL COMBINATION THERAPY” (MERCK & CO., INC., priority 1996, dated 1998)

How the values were obtained:
[1] = tested on: A. fumigatus; assay: broth microdilution antifungal susceptibility / drug combination testing in vitro (NCCLS protocol M27-T); assay type: cell-based
Description: (§1) This has been shown using a broth microdilution technique which is the standard method for antifungal susceptibility testing proposed by the NCCLS (protocol M27-T). Sub-inhibitory concentrations of Compound I in combination with sub-inhibitory concentrations of AmB and sub-inhibitory concentrations of FCZ were employed. The minimal inhibitory concentrations (MICs) for AmB and Compound I were defined as the lowest drug concentration at which there was an absence of growth.
(§2) Additional drug combination testing in vitro was performed to evaluate combinations of Compound I with AmB and FCZ against clinical isolates. There was no antagonism evident between Compound I and AmB against C. albicans, A. fumigatus and C. neoformans. Fractional inhibitory indices (FIC) were approximately 0.50 or lower, indicative of additive or synergistic activity.

[2] = tested on: C. neoformans; assay: as above; assay type: cell-based; conditions: for activity against strains of C. neoformans in vitro: sub-inhibitory concentrations
Description: as §1, §2

[3] = tested on: C. albicans; assay: as above; assay type: cell-based
Description: as §1, §2

[4] = tested on: C. albicans; assay: drug interaction and efficacy study, disseminated candidiasis; assay type: in vivo; conditions: Compound I 0.03 mg/kg and lower plus 0.03 mg/kg and lower of AmB
Protocol: (§3) Drug interaction and efficacy studies with Compound I combined with either AmB or FCZ against disseminated candidiasis, aspergillosis and cryptococcosis were performed.

[5] = tested on: A. fumigatus; assay: drug interaction and efficacy study, disseminated aspergillosis; assay type: in vivo; conditions: Compound I at 0.008 mg/kg combined with AmB at 0.12 mg/kg, versus the compounds administered alone
Protocol: as §3

[6] = tested on: C. neoformans; assay: drug interaction and efficacy study, disseminated cryptococcosis; assay type: in vivo; conditions: combinations of Compound I and FCZ at certain concentrations
Protocol: as §3

[7] = tested on: disseminated candidiasis, aspergillosis and cryptococcosis; assay: drug interaction and efficacy studies in vivo, overall statements; conditions: for adverse effects: at high, use or lower concentrations
Protocol: as §3

[8] = Compound I in combination with AmB

CCC(C)CC(C)CCCCCCCCC(=O)N[C@H]1C[C@@H](O)[C@@H](NCCN)NC(=O)[C@@H]2[C@@H](O)CCN2C(=O)[C@H]([C@H](O)CCN)NC(=O)[C@H]([C@H](O)[C@@H](O)c2ccc(O)cc2)NC(=O)[C@@H]2C[C@@H](O)CN2C(=O)[C@H]([C@@H](C)O)NC1=O (stereo partly shown) [Compound I]
activity in vitro [1, 8]: enhanced activity
antagonism between Compound I and AmB ([1]; in vitro, clinical isolates): no antagonism
activity of fluconazole, CFU numbers ([2]; Compound I combined with fluconazole 0.25, 0.50 and 1.0 µg/ml, organism not printed): significantly enhanced the activity of fluconazole
activity against strains of C. neoformans in vitro [2, 8]: enhanced activity
activity against strains of C. neoformans in vitro ([2]; Compound I in combination with FCZ): enhanced activity
colony forming units (CFUs) ([2]; amphotericin B 0.0075, 0.015 and 0.03 µg/ml combined with Compound I 4, 8 and 16 µg/ml, organism not printed): markedly reduced
antagonism between Compound I and AmB ([2]; in vitro, clinical isolates, C. neoformans): no antagonism
activity in vitro [3, 8]: enhanced activity
antagonism between Compound I and AmB ([3]; in vitro, clinical isolates): no antagonism
efficacy against C. albicans [4]: more efficacious than either agent administered alone
survival [5]: Significant improvement in survival
efficacy against C. neoformans [6]: Beneficial effects on efficacy
antagonism of efficacy ([7]; AmB combined with Compound I): no antagonism of efficacy
adverse effects ([7]; Compound I combined with AmB): no adverse effects
adverse effects ([7]; Compound I combined with FCZ): no adverse effects
antagonism of efficacy ([7]; FCZ combined with Compound I): no antagonism of efficacy
